Columns and labels:
[1] = ATP pharmacokinetics: total blood (red blood cell) ATP level, Phase I study, 8 hour intravenous infusion; format: in vivo, human
Description: The solution was administered by continuous intravenous infusions using an Ivac or similar infusion device through venous access in a peripheral vein. If venous access was a problem, either a Hickman catheter or its equivalent, or an Infusaport or its equivalent was inserted to provide vascular access.
The 50 μg/kg/min dose could be reduced to 25 μg/kg/min if adverse effects occurred. […] Succeeding infusions in that patient were at the infusion dose tolerated at the end of the previous treatment. If adverse events occurred in patients being infused at 25 μg/kg/min, the infusions were terminated and the patient received no additional infusions.

[2] = Voluntary (skeletal) muscle strength, hand grip strength, Phase I study; format: in vivo, human; conditions: for Skeletal Muscle Strength, Change from Baseline, Mean / Skeletal Muscle Strength, Change from Baseline, Median / Skeletal Muscle Strength, Observed Values, Mean / Skeletal Muscle Strength, Observed Values, Median: ITT
Description: Procedure for measuring voluntary (skeletal) muscle strength-hand grip strength • 1. This measurement will be performed in the standing position (without support) using the patients' dominant hand in the horizontal outstretched position of 90 degrees to the body. • 2. Measurements will be taken using a calibrated and well maintained hand-held commercially available dynamometer. • 3. All measurements that are performed during the treatment period will be taken prior to placement of intravenous cannula and prior to study treatment administration • 4. Patients will undertake the hand-grip strength maneuver after initial training—with encouragement from the observer to “do their best”. This will be performed ×3 with no more than 30 seconds between attempts. • 5. The maximal value of the three attempts will be recorded as the hand-grip strength on that day. • 6. The testing will be performed and documented by the same individual member of the research team (as often as is practically possible). • The dynamometer instrument will be to the greatest extent possible the same instrument for any one patient throughout the study and will be initially calibrated and checked for accuracy prior to the study and thereafter on a regular basis. ATP Therapeutics, Inc.

[3] = Week 1 (infusion 1), 4 hours into infusion
[4] = Week 1 (infusion 1), 8 hours (before the end)
[5] = Week 1 (infusion 1), 8.25 hours
[6] = Week 1 (infusion 1), Time 0 (pre-infusion)
[7] = Week 3 (Infusion 3), 4 hours into infusion
[8] = Week 3 (Infusion 3), 8 hours before the end
[9] = Week 3 (Infusion 3), Time 0 (pre-infusion)
[10] = Week 8 (infusion 8), 4 hours into infusion
[11] = Week 8 (infusion 8), 8 hours (before the end)
[12] = Week 8 (infusion 8), Time 0 (pre-infusion)
[13] = Week <1 (Screening), baseline, N=15

SMILES: Nc1ncnc2c1ncn2[C@@H]1O[C@H](COP(=O)(O)OP(=O)(O)OP(=O)(O)O)[C@@H](O)[C@H]1O [ATP, adenosine 5′-triphosphate]
- total blood (red blood cell) ATP levels ([1]; ATP continuously for eight hours): increases
- ATP Level Mean [1, 3]: 0.808 mM
- ATP Level Median [1, 3]: 0.745 mM
- ATP Level Mean [1, 4]: 0.896 mM
- ATP Level Median [1, 4]: 0.770 mM
- ATP Level Mean [1, 5]: 0.860 mM
- ATP Level Median [1, 5]: 0.860 mM
- ATP Level Mean ([1]; Week 1 (infusion 1), 9 hours): 0.912 mM
- ATP Level Median ([1]; Week 1 (infusion 1), 9 hours): 0.765 mM
- ATP Level Mean ([1]; Week 1 (infusion 1), 10 hours): 0.826 mM
- ATP Level Median ([1]; Week 1 (infusion 1), 10 hours): 0.735 mM
- ATP Level Mean ([1]; Week 1 (infusion 1), 11 hours): 0.828 mM
- ATP Level Median ([1]; Week 1 (infusion 1), 11 hours): 0.680 mM
- ATP Level Mean ([1]; Week 1 (infusion 1), 12 hours): 0.845 mM
- ATP Level Median ([1]; Week 1 (infusion 1), 12 hours): 0.690 mM
- ATP Level Mean ([1]; Week 1 (infusion 1), 14 hours): 0.857 mM
- ATP Level Median ([1]; Week 1 (infusion 1), 14 hours): 0.730 mM
- ATP Level Mean ([1]; Week 1 (infusion 1), 16 hours): 0.905 mM
- ATP Level Median ([1]; Week 1 (infusion 1), 16 hours): 0.755 mM
- ATP Level Mean ([1]; Week 1 (infusion 1), 20 hours): 0.772 mM
- ATP Level Median ([1]; Week 1 (infusion 1), 20 hours): 0.670 mM
- ATP Level Mean ([1]; Week 1 (infusion 1), 24 hours): 0.715 mM
- ATP Level Median ([1]; Week 1 (infusion 1), 24 hours): 0.620 mM
- ATP Level Mean [1, 6]: 0.615 mM
- ATP Level Median [1, 6]: 0.550 mM
- ATP Level Mean ([1]; Week 1 (infusion 1), […]): 0.895 mM
- ATP Level Median ([1]; Week 1 (infusion 1), […]): 0.810 mM
- ATP Level Mean [1, 7]: 0.843 mM
- ATP Level Median [1, 7]: 0.540 mM
- ATP Level Mean [1, 8]: 0.955 mM
- ATP Level Median [1, 8]: 0.770 mM
- ATP Level Mean ([1]; Week 3 (Infusion 3), 9 hours): 0.908 mM
- ATP Level Median ([1]; Week 3 (Infusion 3), 9 hours): 0.950 mM
- ATP Level Mean ([1]; Week 3 (Infusion 3), 10 hours): 0.906 mM
- ATP Level Median ([1]; Week 3 (Infusion 3), 10 hours): 1.000 mM
- ATP Level Mean ([1]; Week 3 (Infusion 3), 11 hours): 0.885 mM
- ATP Level Median ([1]; Week 3 (Infusion 3), 11 hours): 0.670 mM
- ATP Level Mean ([1]; Week 3 (Infusion 3), 12 hours): 0.903 mM
- ATP Level Median ([1]; Week 3 (Infusion 3), 12 hours): 0.820 mM
- ATP Level Mean ([1]; Week 3 (Infusion 3), 14 hours): 0.853 mM
- ATP Level Median ([1]; Week 3 (Infusion 3), 14 hours): 0.600 mM
- ATP Level Mean ([1]; Week 3 (Infusion 3), 16 hours): 0.859 mM
- ATP Level Median ([1]; Week 3 (Infusion 3), 16 hours): 0.740 mM
- ATP Level Mean ([1]; Week 3 (Infusion 3), 20 hours): 0.851 mM
- ATP Level Median ([1]; Week 3 (Infusion 3), 20 hours): 0.610 mM
- ATP Level Mean ([1]; Week 3 (Infusion 3), 24 hours): 0.687 mM
- ATP Level Median ([1]; Week 3 (Infusion 3), 24 hours): 0.580 mM
- ATP Level Mean [1, 9]: 0.610 mM
- ATP Level Median [1, 9]: 0.560 mM
- ATP Level Mean ([1]; Week 3 (Infusion 3), […]): 0.989 mM
- ATP Level Median ([1]; Week 3 (Infusion 3), […]): 0.960 mM
- ATP Level Mean [1, 10]: 0.702 mM
- ATP Level Median [1, 10]: 0.770 mM
- ATP Level Mean [1, 11]: 0.826 mM
- ATP Level Median [1, 11]: 0.890 mM
- ATP Level Mean ([1]; Week 8 (infusion 8), 9 hours): 1.030 mM
- ATP Level Median ([1]; Week 8 (infusion 8), 9 hours): 1.155 mM
- ATP Level Mean ([1]; Week 8 (infusion 8), 10 hours): 0.963 mM
- ATP Level Median ([1]; Week 8 (infusion 8), 10 hours): 1.080 mM
- ATP Level Mean ([1]; Week 8 (infusion 8), 11 hours): 0.973 mM
- ATP Level Median ([1]; Week 8 (infusion 8), 11 hours): 1.010 mM
- ATP Level Mean ([1]; Week 8 (infusion 8), 12 hours): 0.925 mM
- ATP Level Median ([1]; Week 8 (infusion 8), 12 hours): 1.050 mM
- ATP Level Mean ([1]; Week 8 (infusion 8), 14 hours): 0.980 mM
- ATP Level Median ([1]; Week 8 (infusion 8), 14 hours): 0.950 mM
- ATP Level Mean ([1]; Week 8 (infusion 8), 16 hours): 0.894 mM
- ATP Level Median ([1]; Week 8 (infusion 8), 16 hours): 0.700 mM
- ATP Level Mean ([1]; Week 8 (infusion 8), 20 hours): 0.960 mM
- ATP Level Median ([1]; Week 8 (infusion 8), 20 hours): 0.900 mM
- ATP Level Mean ([1]; Week 8 (infusion 8), 24 hours): 0.708 mM
- ATP Level Median ([1]; Week 8 (infusion 8), 24 hours): 0.750 mM
- ATP Level Mean [1, 12]: 0.573 mM
- ATP Level Median [1, 12]: 0.560 mM
- ATP Level Mean ([1]; Week 8 (infusion 8), […]): 1.000 mM
- ATP Level Median ([1]; Week 8 (infusion 8), […]): 0.980 mM
- Increases in total blood ATP pools ([1]; patients 502-505, weeks 1, 3 and 8, time 0 to 8 hours (end of the infusions)): 70-90%
- Skeletal Muscle Strength, Change from Baseline, Mean ([2]; Week 1 (Infusion 1), N=6): -1.7 kg
- Skeletal Muscle Strength, Change from Baseline, Median ([2]; Week 1 (Infusion 1), N=6): -1.5 kg
- Skeletal Muscle Strength, Observed Values, Mean ([2]; Week 1 (Infusion 1), N=6): 38.5 kg
- Skeletal Muscle Strength, Observed Values, Median ([2]; Week 1 (Infusion 1), N=6): 35.0 kg
- Skeletal Muscle Strength, Change from Baseline, Mean ([2]; Week 2 (Infusion 2), N=14): -1.4 kg
- Skeletal Muscle Strength, Change from Baseline, Median ([2]; Week 2 (Infusion 2), N=14): -2.0 kg
- Skeletal Muscle Strength, Observed Values, Mean ([2]; Week 2 (Infusion 2), N=14): 34.6 kg
- Skeletal Muscle Strength, Observed Values, Median ([2]; Week 2 (Infusion 2), N=14): 34.0 kg
- Skeletal Muscle Strength, Change from Baseline, Mean ([2]; Week 4 (Infusion 4), N=11): -4.1 kg
- Skeletal Muscle Strength, Change from Baseline, Median ([2]; Week 4 (Infusion 4), N=11): -2.0 kg
- Skeletal Muscle Strength, Observed Values, Mean ([2]; Week 4 (Infusion 4), N=11): 31.5 kg
- Skeletal Muscle Strength, Observed Values, Median ([2]; Week 4 (Infusion 4), N=11): 32.0 kg
- Skeletal Muscle Strength, Change from Baseline, Mean ([2]; Week 8 (Infusion 8), N=7): -2.4 kg
- Skeletal Muscle Strength, Change from Baseline, Median ([2]; Week 8 (Infusion 8), N=7): -2.0 kg
- Skeletal Muscle Strength, Observed Values, Mean ([2]; Week 8 (Infusion 8), N=7): 30.0 kg
- Skeletal Muscle Strength, Observed Values, Median ([2]; Week 8 (Infusion 8), N=7): 26.0 kg
- Skeletal Muscle Strength, Change from Baseline, Mean ([2]; Week 10 (Follow-up), N=6): 1.8 kg
- Skeletal Muscle Strength, Change from Baseline, Median ([2]; Week 10 (Follow-up), N=6): -3.0 kg
- Skeletal Muscle Strength, Observed Values, Mean ([2]; Week 10 (Follow-up), N=6): 33.7 kg
- Skeletal Muscle Strength, Observed Values, Median ([2]; Week 10 (Follow-up), N=6): 30.0 kg
- Skeletal Muscle Strength, Change from Baseline, Mean ([2]; Week 13 (follow-up), N=4): 6.3 kg
- Skeletal Muscle Strength, Change from Baseline, Median ([2]; Week 13 (follow-up), N=4): -1.0 kg
- Skeletal Muscle Strength, Observed Values, Mean ([2]; Week 13 (follow-up), N=4): 32.5 kg
- Skeletal Muscle Strength, Observed Values, Median ([2]; Week 13 (follow-up), N=4): 26.0 kg
- Skeletal Muscle Strength, Change from Baseline, Mean [2, 13]: 0.0 kg
- Skeletal Muscle Strength, Change from Baseline, Median [2, 13]: 0.0 kg
- Skeletal Muscle Strength, Observed Values, Mean [2, 13]: 35.1 kg
- Skeletal Muscle Strength, Observed Values, Median [2, 13]: 35.0 kg
- skeletal muscle strength ([2]; beginning at week 8 and up to week 13): stabilize and improve
- Skeletal Muscle Strength (voluntary) ([2]; patients 502-505, screening (week <1) to week 8 (last infusion cycle)): Small increase

Reference: patent US20070203091A1, “Methods and therapeutic compositions for improving liver, blood flow and skeletal muscle functions in advanced diseases and aging” (priority 2006, published 2007)
